Source: ChEMBL document CHEMBL1201862, “PubChem BioAssay data set” (2004)
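Values below derive from 48-hour exposures of cells grown in 96-well plates, with endpoints linearly interpolated between the two concentrations bracketing the appropriate inhibition level. GI50 marks 50% less growth.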 Activity calls are given as the source filed them. No stated cut-off is given here; in the data, active = GI50 up to about 1.1 µM and inactive = higher.

Tests used:
Test in all cases: NCI-60 cell line screen, 48 h
[1] = system: OVCAR-8
[2] = system: K562
[3] = system: NCI-H23
[4] = system: SK-OV-3
[5] = system: SNB-19
[6] = system: SF-295
[7] = system: COLO 205
[8] = system: U-251
[9] = system: HCC 2998
[10] = system: UACC-62
[11] = system: HOP-62
[12] = system: CAKI-1
[13] = system: SR

| Structure (SMILES) | GI50 [1] | GI50 [2] | GI50 [3] | GI50 [4] | GI50 [5] | GI50 [6] | GI50 [7] | GI50 [8] | GI50 [9] | GI50 [10] | GI50 [11] | GI50 [12] | GI50 [13] |
| --- | --- | --- | --- | --- | --- | --- | --- | --- | --- | --- | --- | --- | --- |
| CC(=O)O[C@H]1CCC2[C@@H]3CCC4C(=O)c5oncc5C[C@]4(C)C3CC[C@@]21C (some centres undefined) | > 100 µM (inactive) | > 100 µM (inactive) | > 100 µM (inactive) | > 100 µM (inactive) | > 10 µM (inactive) | 39.5 µM (inactive) | > 100 µM (inactive) | > 100 µM (inactive) | > 100 µM (inactive) | 60.3 µM (inactive) | > 100 µM (inactive) | – | – |
| O=C(c1ccccc1)[C@@H]1C[C@H](Sc2ccccc2)c2cc(Cl)ccc2N1 | 23.4 µM (inactive) | 18.9 µM (inactive) | 20.2 µM (inactive) | – | 43.3 µM (inactive) | 28.1 µM (inactive) | 45.5 µM (inactive) | 21.2 µM (inactive) | 20.5 µM (inactive) | 19.5 µM (inactive) | 51.6 µM (inactive) | 42.2 µM (inactive) | 14 µM (inactive) |
| OCCCc1cnco1 | > 100 µM (inactive) | > 100 µM (inactive) | > 100 µM (inactive) | > 100 µM (inactive) | > 100 µM (inactive) | > 100 µM (inactive) | > 100 µM (inactive) | > 100 µM (inactive) | > 100 µM (inactive) | > 100 µM (inactive) | > 100 µM (inactive) | > 100 µM (inactive) | > 100 µM (inactive) |
| CCOC(=O)Nc1ccc(S(=O)(=O)I)cc1.CCOC(=O)Nc1ccc(S(=O)(=O)I)cc1.CNC(=O)N=O.NC(=O)OCCCl | > 100 µM (inactive) | 40 µM (inactive) | > 100 µM (inactive) | > 100 µM (inactive) | > 100 µM (inactive) | 78 µM (inactive) | > 100 µM (inactive) | > 100 µM (inactive) | > 100 µM (inactive) | 73.6 µM (inactive) | 46.7 µM (inactive) | > 100 µM (inactive) | > 100 µM (inactive) |
| C=CCNC(=O)ON1C(=O)CCC1=O | > 100 µM (inactive) | > 100 µM (inactive) | > 100 µM (inactive) | > 100 µM (inactive) | > 100 µM (inactive) | > 100 µM (inactive) | > 100 µM (inactive) | > 100 µM (inactive) | > 100 µM (inactive) | > 100 µM (inactive) | > 100 µM (inactive) | – | – |
| CC(=O)NC(CCCCNC(=O)OCc1ccccc1)C(=O)NCc1ccccc1 (centres undefined) | > 100 µM (inactive) | > 100 µM (inactive) | > 100 µM (inactive) | > 100 µM (inactive) | > 100 µM (inactive) | > 100 µM (inactive) | > 100 µM (inactive) | > 100 µM (inactive) | > 100 µM (inactive) | > 100 µM (inactive) | > 100 µM (inactive) | > 100 µM (inactive) | – |
| COc1ccc(C(=O)O/N=C2/CCC/C2=C\c2ccccc2)cc1 | > 100 µM (inactive) | > 100 µM (inactive) | > 100 µM (inactive) | > 100 µM (inactive) | > 100 µM (inactive) | > 65.8 µM (inactive) | > 100 µM (inactive) | > 70.3 µM (inactive) | > 100 µM (inactive) | > 100 µM (inactive) | > 100 µM (inactive) | > 100 µM (inactive) | > 100 µM (inactive) |
| C=C(CCCO)[C@@H]1CC[C@@](C)(O)[C@H]1C | > 100 µM (inactive) | > 100 µM (inactive) | > 100 µM (inactive) | 0.885 µM (active) | > 100 µM (inactive) | > 100 µM (inactive) | > 100 µM (inactive) | > 100 µM (inactive) | > 100 µM (inactive) | > 100 µM (inactive) | – | > 100 µM (inactive) | > 100 µM (inactive) |
| Nc1ccc(C(=O)NN2C(=O)C(Cl)C2c2ccccc2)cc1 (centres undefined) | > 100 µM (inactive) | > 100 µM (inactive) | > 100 µM (inactive) | > 100 µM (inactive) | > 100 µM (inactive) | > 100 µM (inactive) | > 100 µM (inactive) | > 100 µM (inactive) | > 100 µM (inactive) | > 100 µM (inactive) | > 100 µM (inactive) | > 100 µM (inactive) | – |
| COc1cc(/C=C2/C(=O)N(C(=O)OCc3ccccc3)C(Cc3cc(OC)c(OC)c(C)c3OC)C(=O)N2Cc2ccccc2)c(OC)c(C)c1OC (centres undefined) | > 100 µM (inactive) | 39 µM (inactive) | > 100 µM (inactive) | > 100 µM (inactive) | > 100 µM (inactive) | > 100 µM (inactive) | > 100 µM (inactive) | 33.1 µM (inactive) | > 100 µM (inactive) | > 100 µM (inactive) | > 100 µM (inactive) | > 100 µM (inactive) | 41.1 µM (inactive) |
| O=C1O/C(=C(/c2ccc(Cl)cc2)c2nc3ccccc3[nH]2)C(O)=C1c1ccc(Cl)cc1 | 2.82 µM (inactive) | 1.85 µM (inactive) | 1.38 µM (inactive) | 2.86 µM (inactive) | 2.93 µM (inactive) | 3.99 µM (inactive) | 1.59 µM (inactive) | 2.56 µM (inactive) | 2.83 µM (inactive) | 2.21 µM (inactive) | 1.8 µM (inactive) | 2.23 µM (inactive) | 1.92 µM (inactive) |
| CS/C(=N/C(=O)c1ccccc1)SCCS/C(=N\C(=O)c1ccccc1)SC | > 100 µM (inactive) | > 100 µM (inactive) | > 100 µM (inactive) | – | > 100 µM (inactive) | > 100 µM (inactive) | > 100 µM (inactive) | > 100 µM (inactive) | > 100 µM (inactive) | > 100 µM (inactive) | 62.2 µM (inactive) | > 100 µM (inactive) | – |
| O=C(/C=C/c1ccccc1F)C(c1ccccc1)c1ccccc1 | – | 3.7 µM (inactive) | 4.22 µM (inactive) | 2.01 µM (inactive) | 2.14 µM (inactive) | 2.06 µM (inactive) | – | 3.74 µM (inactive) | – | 2.08 µM (inactive) | – | 5.36 µM (inactive) | 3.41 µM (inactive) |
| O=C1CCCCC1CN1CCCC1 (centres undefined) | > 100 µM (inactive) | > 100 µM (inactive) | > 100 µM (inactive) | > 100 µM (inactive) | – | > 100 µM (inactive) | > 100 µM (inactive) | > 100 µM (inactive) | > 100 µM (inactive) | – | > 100 µM (inactive) | – | 38.7 µM (inactive) |
| CC(C)c1cccc(C(C)C)c1N1C(=O)C(=O)C(c2nc3ccccc3o2)C(=O)C1=O | > 100 µM (inactive) | 28.2 µM (inactive) | 29.6 µM (inactive) | > 100 µM (inactive) | > 100 µM (inactive) | > 100 µM (inactive) | 32.8 µM (inactive) | > 100 µM (inactive) | 24.3 µM (inactive) | 71.6 µM (inactive) | > 100 µM (inactive) | 40.5 µM (inactive) | – |
| COc1cc2c(cc1OC)C(C#N)(Cc1ccccc1)N(C(=O)c1ccccc1)C=C2 (centres undefined) | 65.8 µM (inactive) | 44.3 µM (inactive) | 75.7 µM (inactive) | 75.3 µM (inactive) | > 100 µM (inactive) | > 100 µM (inactive) | 35.2 µM (inactive) | > 100 µM (inactive) | > 100 µM (inactive) | 31.3 µM (inactive) | 51.5 µM (inactive) | – | 45.7 µM (inactive) |
| COc1cc(/C=C2\C(=O)N(C(=O)Cc3ccccc3)N=C2C)cc(OC)c1OC | > 100 µM (inactive) | > 100 µM (inactive) | > 100 µM (inactive) | – | > 100 µM (inactive) | > 100 µM (inactive) | > 100 µM (inactive) | – | > 100 µM (inactive) | – | > 100 µM (inactive) | > 100 µM (inactive) | > 100 µM (inactive) |
| CCSc1nc(-c2ccc(OC)cc2)c(C#N)c(=O)n1C1OCC(OC(C)=O)C(OC(C)=O)C1OC(C)=O (centres undefined) | – | > 100 µM (inactive) | 94.6 µM (inactive) | > 100 µM (inactive) | > 100 µM (inactive) | > 100 µM (inactive) | > 100 µM (inactive) | > 100 µM (inactive) | > 100 µM (inactive) | > 100 µM (inactive) | > 100 µM (inactive) | > 100 µM (inactive) | > 100 µM (inactive) |
| C/C(C=O)=C1\C(O)C[C@]1(C)C1CC(C)(C)CC1O (some centres undefined) | > 100 µM (inactive) | 54.6 µM (inactive) | > 100 µM (inactive) | – | > 100 µM (inactive) | 41.4 µM (inactive) | > 100 µM (inactive) | > 100 µM (inactive) | > 100 µM (inactive) | – | > 100 µM (inactive) | > 100 µM (inactive) | 47 µM (inactive) |
| COC1=CC(O)(CC(N)=O)c2ccccc2C1=O (centres undefined) | > 100 µM (inactive) | > 100 µM (inactive) | – | > 100 µM (inactive) | > 100 µM (inactive) | > 100 µM (inactive) | > 100 µM (inactive) | > 100 µM (inactive) | > 100 µM (inactive) | > 100 µM (inactive) | > 100 µM (inactive) | > 100 µM (inactive) | > 100 µM (inactive) |
| Cc1ccc(Sc2cc([N+](=O)[O-])cc(Sc3ccc(C)cc3)c2Sc2ccc(C)cc2)cc1 | 74.6 µM (inactive) | 48.8 µM (inactive) | – | – | 66.8 µM (inactive) | > 100 µM (inactive) | > 100 µM (inactive) | 46.5 µM (inactive) | > 100 µM (inactive) | > 100 µM (inactive) | > 100 µM (inactive) | > 100 µM (inactive) | – |
| C/C(CC(=O)NCCc1ccccc1)=N\NS(=O)(=O)c1ccc(C)cc1 | > 100 µM (inactive) | > 100 µM (inactive) | > 100 µM (inactive) | > 100 µM (inactive) | – | > 100 µM (inactive) | > 100 µM (inactive) | > 100 µM (inactive) | > 100 µM (inactive) | > 100 µM (inactive) | > 100 µM (inactive) | – | – |
